Experimental data as given in patent US20200113181A1, “HERBICIDAL COMPOUNDS” (SYNGENTA PARTICIPATIONS AG, priority 2016, published 2020).

Assays:
Type in all cases: in vivo
[1] = test system: Setaria faberi (SETFA); assay: Glasshouse herbicide test, pre- and post-emergence, Setaria faberi; details: 250 g/h, evaluated after 13 days; for SETFA POST, percentage damage caused to the plant (five point scale): post-emergence; for SETFA PRE, percentage damage caused to the plant (five point scale): pre-emergence
Procedure: (§1) Seeds of a variety of test species are sown in standard soil in pots (Lolium perenne (LOLPE), Setaria faberi (SETFA), Alopecurus myosuroides (ALOMY), Echinochloa crus-galli (ECHCG), Avena fatua (AVEFA)). After cultivation for one day (pre-emergence) or after 8 days cultivation (post-emergence) under controlled conditions in a glasshouse (at 24/16° C., day/night; 14 hours light; 65% humidity), the plants are sprayed with an aqueous spray solution derived from the formulation of the technical active ingredient in acetone/water (50:50) solution containing 0.5% Tween 20 (polyoxyethelyene sorbitan monolaurate, CAS RN 9005-64-5). Compounds are applied at […]. The test plants are then grown in a glasshouse under controlled conditions in a glasshouse (at 24/16° C., day/night; 14 hours light; 65% humidity) and watered twice daily. After 13 days for pre and post-emergence, the test is evaluated for the percentage damage caused to the plant. The biological activities are shown in the following table on a five point scale (5=80-100%; 4=60-79%; 3=40-59%; 2=20-39%; 1=0-19%).

[2] = test system: Alopecurus myosuroides (ALOMY); assay: Glasshouse herbicide test, pre- and post-emergence, Alopecurus myosuroides; details: 250 g/h, evaluated after 13 days; for ALOMY POST, percentage damage caused to the plant (five point scale): post-emergence; for ALOMY PRE, percentage damage caused to the plant (five point scale): pre-emergence
Procedure: as §1

[3] = test system: Lolium perenne (LOLPE); assay: Glasshouse herbicide test, pre- and post-emergence, Lolium perenne; details: 250 g/h, evaluated after 13 days; for LOLPE POST, percentage damage caused to the plant (five point scale): post-emergence; for LOLPE PRE, percentage damage caused to the plant (five point scale): pre-emergence
Procedure: as §1

[4] = test system: Avena fatua (AVEFA); assay: Glasshouse herbicide test, pre- and post-emergence, Avena fatua; details: 250 g/h, evaluated after 13 days; for AVEFA POST, percentage damage caused to the plant (five point scale): post-emergence; for AVEFA PRE, percentage damage caused to the plant (five point scale): pre-emergence
Procedure: as §1

[5] = test system: Echinochloa crus-galli (ECHCG); assay: Glasshouse herbicide test, pre- and post-emergence, Echinochloa crus-galli; details: 250 g/h, evaluated after 13 days; for ECHCG POST, percentage damage caused to the plant (five point scale): post-emergence; for ECHCG PRE, percentage damage caused to the plant (five point scale): pre-emergence
Procedure: as §1

CC#Cc1ccc(C2C(=O)[C@H]3[C@@H]4C=C[C@@](C)(O4)[C@H]3C2=O)c(OC)c1 (mixture of isomers) [Compound 1.6]
3 (3=40-59%): AVEFA PRE, percentage damage caused to the plant (five point scale) [4]
2 (2=20-39%): ALOMY POST, percentage damage caused to the plant (five point scale) [2]
5 (5=80-100%): SETFA POST, percentage damage caused to the plant (five point scale) [1] | SETFA PRE, percentage damage caused to the plant (five point scale) [1] | ALOMY PRE, percentage damage caused to the plant (five point scale) [2] | LOLPE POST, percentage damage caused to the plant (five point scale) [3] | LOLPE PRE, percentage damage caused to the plant (five point scale) [3] | AVEFA POST, percentage damage caused to the plant (five point scale) [4] | ECHCG POST, percentage damage caused to the plant (five point scale) [5] | ECHCG PRE, percentage damage caused to the plant (five point scale) [5]

CC#Cc1ccc(C2C(=O)[C@@H]3[C@@H]4O[C@@H](C[C@@H]4OC)[C@@H]3C2=O)c(OC)c1 (mixture of isomers) [Compound 1.25]
5 (5=80-100%): SETFA POST, percentage damage caused to the plant (five point scale) [1] | SETFA PRE, percentage damage caused to the plant (five point scale) [1] | ALOMY POST, percentage damage caused to the plant (five point scale) [2] | ALOMY PRE, percentage damage caused to the plant (five point scale) [2] | LOLPE POST, percentage damage caused to the plant (five point scale) [3] | LOLPE PRE, percentage damage caused to the plant (five point scale) [3] | AVEFA POST, percentage damage caused to the plant (five point scale) [4] | AVEFA PRE, percentage damage caused to the plant (five point scale) [4] | ECHCG POST, percentage damage caused to the plant (five point scale) [5] | ECHCG PRE, percentage damage caused to the plant (five point scale) [5]

CC#Cc1ccc(C2C(=O)[C@H]3[C@@H]4CC[C@@](C)(O4)[C@H]3C2=O)c(OC)c1 (stereo partly drawn) [Compound 1.22]
5 (5=80-100%): SETFA POST, percentage damage caused to the plant (five point scale) [1] | SETFA PRE, percentage damage caused to the plant (five point scale) [1] | ALOMY POST, percentage damage caused to the plant (five point scale) [2] | ALOMY PRE, percentage damage caused to the plant (five point scale) [2] | LOLPE POST, percentage damage caused to the plant (five point scale) [3] | LOLPE PRE, percentage damage caused to the plant (five point scale) [3] | AVEFA POST, percentage damage caused to the plant (five point scale) [4] | AVEFA PRE, percentage damage caused to the plant (five point scale) [4] | ECHCG POST, percentage damage caused to the plant (five point scale) [5] | ECHCG PRE, percentage damage caused to the plant (five point scale) [5]

CC#Cc1ccc(C2C(=O)[C@@H]3[C@@H]4O[C@@H](C[C@@H]4CO)[C@@H]3C2=O)c(OC)c1 (mixture of isomers) [Compound 1.14]
4 (4=60-79%): LOLPE POST, percentage damage caused to the plant (five point scale) [3]
5 (5=80-100%): SETFA POST, percentage damage caused to the plant (five point scale) [1] | AVEFA POST, percentage damage caused to the plant (five point scale) [4] | ECHCG POST, percentage damage caused to the plant (five point scale) [5]
3 (3=40-59%): ALOMY POST, percentage damage caused to the plant (five point scale) [2]

CC#Cc1ccc(C2C(=O)[C@@H]3[C@@H]4O[C@@H](C[C@H]4CC)[C@@H]3C2=O)c(OC)c1 (stereo partly drawn) [Compound 1.24]
5 (5=80-100%): SETFA PRE, percentage damage caused to the plant (five point scale) [1] | ALOMY PRE, percentage damage caused to the plant (five point scale) [2] | LOLPE PRE, percentage damage caused to the plant (five point scale) [3] | AVEFA POST, percentage damage caused to the plant (five point scale) [4] | ECHCG PRE, percentage damage caused to the plant (five point scale) [5]

CC#Cc1ccc(C2C(=O)[C@H]3[C@@H]4CC[C@@](COC)(O4)[C@H]3C2=O)c(OC)c1 (mixture of isomers) [Compound 1.12]
5 (5=80-100%): SETFA POST, percentage damage caused to the plant (five point scale) [1] | SETFA PRE, percentage damage caused to the plant (five point scale) [1] | ALOMY POST, percentage damage caused to the plant (five point scale) [2] | ALOMY PRE, percentage damage caused to the plant (five point scale) [2] | LOLPE POST, percentage damage caused to the plant (five point scale) [3] | LOLPE PRE, percentage damage caused to the plant (five point scale) [3] | AVEFA POST, percentage damage caused to the plant (five point scale) [4] | AVEFA PRE, percentage damage caused to the plant (five point scale) [4] | ECHCG POST, percentage damage caused to the plant (five point scale) [5] | ECHCG PRE, percentage damage caused to the plant (five point scale) [5]

CC#Cc1ccc(C2C(=O)[C@@H]3[C@@H]4O[C@@H](C[C@@H]4COC)[C@@H]3C2=O)c(OC)c1 (stereo in doubt) [Compound 1.19, 8-methoxymethyl-4-[2-methoxy-4-(prop-1-yn-1-yl)phenyl]-10-oxatricyclo[5.2.1.0^2,6]decane-3,5-dione]
5 (5=80-100%): SETFA POST, percentage damage caused to the plant (five point scale) [1] | SETFA PRE, percentage damage caused to the plant (five point scale) [1] | ALOMY POST, percentage damage caused to the plant (five point scale) [2] | ALOMY PRE, percentage damage caused to the plant (five point scale) [2] | LOLPE POST, percentage damage caused to the plant (five point scale) [3] | LOLPE PRE, percentage damage caused to the plant (five point scale) [3] | AVEFA POST, percentage damage caused to the plant (five point scale) [4] | AVEFA PRE, percentage damage caused to the plant (five point scale) [4] | ECHCG POST, percentage damage caused to the plant (five point scale) [5] | ECHCG PRE, percentage damage caused to the plant (five point scale) [5]

CC#Cc1ccc(C2=C(OC(=O)C(C)C)[C@@H]3[C@H](C2=O)[C@@H]2O[C@H]3C[C@@H]2COC)c(OC)c1 (racemic) [Compound 1.27]
5 (5=80-100%): SETFA POST, percentage damage caused to the plant (five point scale) [1] | SETFA PRE, percentage damage caused to the plant (five point scale) [1] | ALOMY POST, percentage damage caused to the plant (five point scale) [2] | ALOMY PRE, percentage damage caused to the plant (five point scale) [2] | LOLPE POST, percentage damage caused to the plant (five point scale) [3] | LOLPE PRE, percentage damage caused to the plant (five point scale) [3] | AVEFA POST, percentage damage caused to the plant (five point scale) [4] | AVEFA PRE, percentage damage caused to the plant (five point scale) [4] | ECHCG POST, percentage damage caused to the plant (five point scale) [5] | ECHCG PRE, percentage damage caused to the plant (five point scale) [5]

CC#Cc1ccc(C2C(=O)[C@@H]3[C@@H]4O[C@@H](C[C@@H]4C4OCCO4)[C@@H]3C2=O)c(OC)c1 (mixture of isomers) [Compound 1.18]
4 (4=60-79%): ALOMY PRE, percentage damage caused to the plant (five point scale) [2] | AVEFA PRE, percentage damage caused to the plant (five point scale) [4]
5 (5=80-100%): SETFA POST, percentage damage caused to the plant (five point scale) [1] | SETFA PRE, percentage damage caused to the plant (five point scale) [1] | ALOMY POST, percentage damage caused to the plant (five point scale) [2] | LOLPE POST, percentage damage caused to the plant (five point scale) [3] | LOLPE PRE, percentage damage caused to the plant (five point scale) [3] | AVEFA POST, percentage damage caused to the plant (five point scale) [4] | ECHCG POST, percentage damage caused to the plant (five point scale) [5] | ECHCG PRE, percentage damage caused to the plant (five point scale) [5]

CC#Cc1ccc(C2C(=O)[C@H]3[C@@H]4CC[C@@](C)(O4)[C@H]3C2=O)c(OC)c1 (stereo partly drawn) [Compound 1.21]
5 (5=80-100%): SETFA POST, percentage damage caused to the plant (five point scale) [1] | AVEFA POST, percentage damage caused to the plant (five point scale) [4] | ECHCG POST, percentage damage caused to the plant (five point scale) [5]
3 (3=40-59%): ECHCG PRE, percentage damage caused to the plant (five point scale) [5]
4 (4=60-79%): SETFA PRE, percentage damage caused to the plant (five point scale) [1] | ALOMY POST, percentage damage caused to the plant (five point scale) [2] | ALOMY PRE, percentage damage caused to the plant (five point scale) [2] | LOLPE POST, percentage damage caused to the plant (five point scale) [3] | LOLPE PRE, percentage damage caused to the plant (five point scale) [3] | AVEFA PRE, percentage damage caused to the plant (five point scale) [4]
